Reference: patent US20250064945A1 (Arvinas Operations, Inc., priority 2021, published 2025)
Where a name gives a salt, the structure may show the parent alone.

Target: T1, BRM (Homo sapiens, UniProt P51531)
T1 construct: In-Cell Western Screen of BRM Degradation in SW1573 Cells; endogenous in cells; host or cells: SW1573 cells
Experiment: Western blot / In-Cell Western screen of BRM degradation in SW1573 cells
Type: cell-based
Conditions: overnight (18-20 hours) treatment; for Dmax: read-out: Dmax (%) (% degraded)
Description: Western Blot Screen of BRM Degradation in SW1573 Cells
(§1) To assess BRM degradation (Dmax and DC50) cells were seeded at 8000/well in 96-well black/clear-bottom plates in 180 μL DMEM growth media (containing 1% pen-strep, 1% HEPES and 10% FBS) per well. Plates were incubated overnight to allow adhesion. The next morning cells were treated by adding 20 μL of 10× target compound concentration (1% DMSO) to appropriate wells and returned to incubator for overnight (18-20 hours). The final DMSO concentration was 0.1%.
For lysing, adherent cells were washed once with 100 μL of DPBS. Cells were lysed in 40 μL of 1× RIPA+HALT protease inhibitor on ice for 10 minutes and frozen until use at −80° C. Thawed lysates were cleaned by filtration in 1.2 µm filter plates, or alternatively, were spun clean at 2300 g at 4° C. for 30 minutes.
For blotting, for each Western sample 30 μL of lysate was added to 10 μL of 4×LDS sample buffer, then denatured at 95° C. for 5 minutes in the thermal cycler and placed on ice. Samples were loaded on 4-15% Tris/Glycine gels and run for 25 minutes at 250 constant volts in 1×Tris/Glycine buffer with 4 μL of ladder and 12 μL of each sample loaded for each blot. Protein was transferred from gels to NC with BioRad Turbo dry-transfer unit with the Turbo/midi default program. All blots were rinsed with ddH2O and blocked for 1 hour at room temperature in 5% BSA in TBST (0.1%) on rocker. Blots were exposed to primary antibody in 5% BSA in TBST (0.1%) overnight at 4° C. on rocker (1:1000 for BRM (Cell Signaling Tech. cat #11966) and 1:2000 for alpha-tubulin (Cell Signaling Tech. cat #3873), a control protein. Blot was washed with TBST (0.1%) three times for 5 minutes on rocker at room temperature. Secondary antibody was added, and blots were incubated on a room temperature rocker for 1 hour with 1:18,000 anti-rabbit-HRP and/or anti-mouse-HRP in 5% BSA in TBST (0.1%). Blots were washed three times in TBST (0.1%) for 5 minutes at room temperature on the rocker. Signal was developed with Femto Maximum Sensitivity substrate for 4 minutes and blots read on ChemiDoc™.
In-Cell Western Screen of BRM Degradation in SW1573 Cells
as §1, with “DC50),” for “DC50)”, “10×” for “10× target”, “compound” for “compound concentration”
For processing, the plates were removed from incubator, the media was removed, and immediately 200 μL of cold (4° C.) DPBS was added to all wells. DPBS was then removed, and 50 μL of 4% paraformaldehyde (PFA) in DPBS (4° C.) was added to all wells, and the plates were incubated at room temperature for 20 minutes. PFA was then removed, and 200 μL of TBS-T containing 0.5% Triton X-100 was added to all wells, and the plates were incubated at room temperature for 30 minutes. TBS-T containing 0.5% Triton X-100 was then removed, and 50 μL of Li-Cor blocking solution was added, and the plates were incubated at room temperature for a minimum of one hour. The blocking solution was removed, and 50 μL of Li-Cor blocking solution containing primary antibody cocktail was added (1:1000 for BRM (Cell Signaling Tech. cat #11966) and 1:2000 for alpha-tubulin (Sigma cat #T6074), a control protein. Plates were then placed in cold room until the next day.
The next day plates were washed three times with TBS-T, 200 μL per well. Fifty […] of secondary antibody cocktail in LI-COR blocking solution (anti-rabbit_800 nm and anti-mouse_680 nm) was added to all wells (diluted 1:5000). The plates were incubated at room temperature for at least one hour while protected from light. The plates were washed twice with TBS-T, 200 μL per well. […]

T1 sequence (P51531 whole entry): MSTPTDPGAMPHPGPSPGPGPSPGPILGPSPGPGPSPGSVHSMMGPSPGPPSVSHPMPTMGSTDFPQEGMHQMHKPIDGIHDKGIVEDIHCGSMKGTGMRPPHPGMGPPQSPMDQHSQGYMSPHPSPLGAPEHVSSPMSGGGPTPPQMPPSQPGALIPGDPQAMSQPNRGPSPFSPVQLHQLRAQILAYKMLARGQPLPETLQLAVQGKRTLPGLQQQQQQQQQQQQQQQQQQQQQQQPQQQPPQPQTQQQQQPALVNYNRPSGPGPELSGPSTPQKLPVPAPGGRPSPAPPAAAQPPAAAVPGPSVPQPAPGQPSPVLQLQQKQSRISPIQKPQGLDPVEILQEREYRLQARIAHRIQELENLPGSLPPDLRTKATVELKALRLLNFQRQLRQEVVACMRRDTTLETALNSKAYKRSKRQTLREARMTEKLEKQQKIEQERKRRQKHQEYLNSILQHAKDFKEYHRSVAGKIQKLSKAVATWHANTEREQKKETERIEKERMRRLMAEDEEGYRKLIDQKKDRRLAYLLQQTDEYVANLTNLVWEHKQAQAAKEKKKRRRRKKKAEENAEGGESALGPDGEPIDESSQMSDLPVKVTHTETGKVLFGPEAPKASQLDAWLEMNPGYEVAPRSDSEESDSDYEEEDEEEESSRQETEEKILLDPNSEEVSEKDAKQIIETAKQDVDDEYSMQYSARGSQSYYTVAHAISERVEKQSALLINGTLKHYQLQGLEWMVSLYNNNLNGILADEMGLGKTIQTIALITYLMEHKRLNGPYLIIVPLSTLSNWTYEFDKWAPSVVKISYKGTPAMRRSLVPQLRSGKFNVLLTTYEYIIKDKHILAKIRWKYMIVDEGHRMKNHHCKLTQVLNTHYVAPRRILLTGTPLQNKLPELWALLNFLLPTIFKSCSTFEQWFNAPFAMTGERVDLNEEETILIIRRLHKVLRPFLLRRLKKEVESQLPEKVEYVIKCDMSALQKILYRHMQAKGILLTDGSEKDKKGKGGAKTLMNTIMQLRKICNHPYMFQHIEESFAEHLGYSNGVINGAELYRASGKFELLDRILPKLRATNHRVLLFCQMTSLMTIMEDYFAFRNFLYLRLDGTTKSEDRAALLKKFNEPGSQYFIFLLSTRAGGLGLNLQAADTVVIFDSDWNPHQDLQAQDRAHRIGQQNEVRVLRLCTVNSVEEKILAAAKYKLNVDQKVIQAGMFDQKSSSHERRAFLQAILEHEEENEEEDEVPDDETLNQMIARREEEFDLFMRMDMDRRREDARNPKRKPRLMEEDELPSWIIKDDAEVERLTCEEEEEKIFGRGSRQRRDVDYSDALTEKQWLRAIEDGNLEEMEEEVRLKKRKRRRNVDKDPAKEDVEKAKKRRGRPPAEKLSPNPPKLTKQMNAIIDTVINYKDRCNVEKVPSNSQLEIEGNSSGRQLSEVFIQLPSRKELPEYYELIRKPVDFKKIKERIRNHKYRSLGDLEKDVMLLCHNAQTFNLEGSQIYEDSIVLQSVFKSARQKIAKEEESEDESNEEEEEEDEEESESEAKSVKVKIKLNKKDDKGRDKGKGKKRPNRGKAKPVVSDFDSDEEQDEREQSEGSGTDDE

Row | Compound | DC50 | Dmax
1 | Cc1ncsc1-c1ccc([C@H](C)NC(=O)[C@@H]2C[C@@H](O)CN2C(=O)[C@@H](c2cc(N3CCC(CN4CCC(O[C@H]5C[C@H](Oc6cc(CC(F)c7cc(-c8ccccc8O)nnc7N)ccn6)C5)CC4)CC3)no2)C(C)C)cc1 (stereo partly drawn) [Compound 2, (2S,4R)-4-hydroxy-N-[(1S)-1-[4-(4-methyl-1,3-thiazol-5-yl)phenyl]ethyl]-1-[(2R)-3-methyl-2-{3-[4-({4-[(1r,3r)-3-[(4-{2-[3-amino-6-(2-hydroxyphenyl)pyridazin-4-yl]-2-fluoroethyl}pyridin-2-yl)oxy]cyclobutoxy]piperidin-1-yl}methyl)piperidin-1-yl]-1,2-oxazol-5-yl}butanoyl]pyrrolidine-2-carboxamide] | 2.5 to 10 nM | > 75%
2 | Cc1ncsc1-c1ccc([C@H](C)NC(=O)[C@@H]2C[C@@H](O)CN2C(=O)[C@@H](c2cc(N3CCC(CN4CCC(O[C@H]5C[C@H](N6CCC(O[C@H]7C[C@H](C#Cc8cc(-c9ccccc9O)nnc8N)C7)CC6)C5)CC4)CC3)no2)C(C)C)cc1 [Compound 5, (2S,4R)-4-hydroxy-N-[(1S)-1-[4-(4-methyl-1,3-thiazol-5-yl)phenyl]ethyl]-1-[(2R)-3-methyl-2-{3-[4-({4-[(1r,3r)-3-(4-[(1r,3r)-3-{2-[3-amino-6-(2-hydroxyphenyl)pyridazin-4-yl]ethynyl}cyclobutoxy]piperidin-1-yl}cyclobutoxy]piperidin-1-yl}methyl)piperidin-1-yl]-1,2-oxazol-5-yl}butanoyl]pyrrolidine-2-carboxamide] | < 2.5 nM | > 75%
3 | CC(C)[C@@H](C(=O)N1C[C@H](O)C[C@H]1C(=O)N[C@@H](C)c1ccc(-c2ccnn2C)cc1)c1cc(N2CCC(CN3CCC(O[C@H]4C[C@H](N5CCC(C/C=C/c6cn7cc(-c8ccccc8O)nc7nc6N)CC5)C4)CC3)CC2)no1 [Compound 44, (2S,4R)-4-hydroxy-N-[(1S)-1-[4-(1-methyl-1H-pyrazol-5-yl)phenyl]ethyl]-1-[(2R)-3-methyl-2-{3-[4-({4-[(1r,3r)-3-{4-[(2E)-3-[7-amino-2-(2-hydroxyphenyl)imidazo[1,2-a]pyrimidin-6-yl]prop-2-en-1-yl]piperidin-1-yl}cyclobutoxy]piperidin-1-yl}methyl)piperidin-1-yl]-1,2-oxazol-5-yl}butanoyl]pyrrolidine-2-carboxamide] | < 2.5 nM | > 75%
4 | Cc1ncsc1-c1ccc([C@H](C)NC(=O)[C@@H]2C[C@@H](O)CN2C(=O)[C@@H](c2cc(N3CCC(O[C@H]4C[C@H](OCC#Cc5cn6cc(-c7ccccc7O)nc6nc5N)C4)CC3)no2)C(C)C)cc1 [Compound 35, formate] | 2.5 to 10 nM | > 75%
5 | Cc1ncsc1-c1ccc([C@H](C)NC(=O)[C@@H]2C[C@@H](O)CN2C(=O)[C@@H](c2cc(N3CCC(CN4CCC(O[C@H]5C[C@H](OCC#Cc6cn7cc(-c8ccccc8O)nc7nc6N)C5)CC4)CC3)no2)C(C)C)cc1 [Compound 29] | < 2.5 nM | > 75%
6 | Cc1ncsc1-c1ccc([C@H](C)NC(=O)[C@@H]2C[C@@H](O)CN2C(=O)[C@@H](c2cc(N3CCC(CN4CCC(O[C@H]5C[C@H](N6CCN(C[C@@H]7[C@H]8CN(c9cc(-c%10ccccc%10O)nnc9N)C[C@@H]78)CC6)C5)CC4)CC3)no2)C(C)C)cc1 [Compound 9, (2S,4R)-4-hydroxy-N-[(1S)-1-[4-(4-methyl-1,3-thiazol-5-yl)phenyl]ethyl]-1-[(2R)-3-methyl-2-{3-[4-({4-[(1r,3r)-3-(4-{[(1R,5S,6S)-3-[3-amino-6-(2-hydroxyphenyl)pyridazin-4-yl]-3-azabicyclo[3.1.0]hexan-6-yl]methyl}piperazin-1-yl)cyclobutoxy]piperidin-1-yl}methyl)piperidin-1-yl]-1,2-oxazol-5-yl}butanoyl]pyrrolidine-2-carboxamide] | < 2.5 nM | > 75%
7 | Cc1ncsc1-c1ccc([C@H](C)NC(=O)[C@@H]2C[C@@H](O)CN2C(=O)[C@H](c2cc(OCCN3CCN(CCOc4cc(N5CCN(c6cc(-c7ccccc7O)nnc6N)CC56COC6)ccn4)CC3)no2)C(C)C)cn1 [Compound 16, (2S,4R)-1-[(2S)-2-{3-[2-(4-{2-[(4-{8-[3-amino-6-(2-hydroxyphenyl)pyridazin-4-yl]-2-oxa-5,8-diazaspiro[3.5]nonan-5-yl}pyridin-2-yl)oxy]ethyl}piperazin-1-yl)ethoxy]-1,2-oxazol-5-yl}-3-methylbutanoyl]-4-hydroxy-N-[(1S)-1-[6-(4-methyl-1,3-thiazol-5-yl)pyridin-3-yl]ethyl]pyrrolidine-2-carboxamide] | ≥ 30 nM | –
8 | Cc1ncsc1-c1ccc([C@H](C)NC(=O)[C@@H]2C[C@@H](O)CN2C(=O)[C@@H](c2cc(N3CCC(CN4CCC(O[C@H]5C[C@H](N6CCC(CN7CC8(C7)CN(c7cc(-c9ccccc9O)nnc7N)CCO8)CC6)C5)CC4)CC3)no2)C(C)C)cc1 [Compound 11, (2S,4R)-4-hydroxy-N-[(1S)-1-[4-(4-methyl-1,3-thiazol-5-yl)phenyl]ethyl]-1-[(2R)-3-methyl-2-{3-[4-({4-[(1r,3r)-3-[4-({8-[3-amino-6-(2-hydroxyphenyl)pyridazin-4-yl]-5-oxa-2,8-diazaspiro[3.5]nonan-2-yl}methyl)piperidin-1-yl]cyclobutoxy]piperidin-1-yl}methyl)piperidin-1-yl]-1,2-oxazol-5-yl}butanoyl]pyrrolidine-2-carboxamide] | 2.5 to 10 nM | > 75%
9 | Cc1ncsc1-c1ccc([C@H](C)NC(=O)[C@@H]2C[C@@H](O)CN2C(=O)[C@@H](c2cc(N3CCC(CN4CCC(O[C@H]5C[C@H](N6CCC(CN7CC8(C7)CN(c7cc(-c9ccccc9O)nnc7N)CCN8C)CC6)C5)CC4)CC3)no2)C(C)C)cc1 [Compound 27, (2S,4R)-4-hydroxy-N-[(1S)-1-[4-(4-methyl-1,3-thiazol-5-yl)phenyl]ethyl]-1-[(2R)-3-methyl-2-{3-[4-({4-[(1r,3r)-3-[4-({8-[3-amino-6-(2-hydroxyphenyl)pyridazin-4-yl]-5-methyl-2,5,8-triazaspiro[3.5]nonan-2-yl}methyl)piperidin-1-yl]cyclobutoxy]piperidin-1-yl}methyl)piperidin-1-yl]-1,2-oxazol-5-yl}butanoyl]pyrrolidine-2-carboxamide] | 2.5 to 10 nM | > 75%
10 | Cc1ncsc1-c1ccc([C@H](C)NC(=O)[C@@H]2C[C@@H](O)CN2C(=O)[C@@H](c2cc(N3CCC(CN4CCC(O[C@H]5C[C@H](n6cnc(CN7C8CCC7CN(c7cc(-c9ccccc9O)nnc7N)C8)c6)C5)CC4)CC3)no2)C(C)C)cc1 (relative stereo) [Compound 10, (2S,4R)-4-hydroxy-N-[(1S)-1-[4-(4-methyl-1,3-thiazol-5-yl)phenyl]ethyl]-1-[(2R*)-3-methyl-2-{3-[4-({4-[(1r,3r)-3-[4-({3-[3-amino-6-(2-hydroxyphenyl)pyridazin-4-yl]-3,8-diazabicyclo[3.2.1]octan-8-yl}methyl)-1H-imidazol-1-yl]cyclobutoxy]piperidin-1-yl}methyl)piperidin-1-yl]-1,2-oxazol-5-yl}butanoyl]pyrrolidine-2-carboxamide] | < 2.5 nM | > 75%
11 | Cc1ncsc1-c1ccc([C@H](C)NC(=O)[C@@H]2C[C@@H](O)CN2C(=O)[C@@H](c2cc(N3CCC(CN4CCC(O[C@H]5C[C@@H](N6CCC(CC#Cc7cn8cc(-c9ccccc9O)nc8nc7N)CC6)C5)CC4)CC3)no2)C(C)C)cc1 [Compound 36, formate] | < 2.5 nM | > 75%
